{"source": "patent US7491501B2", "about": "“Methods for identifying modulators of intracellular aggregate formation” (Auburn University, priority 2003, dated 2009)", "test_system": "26S proteasome", "assay": "In vitro deubiquitination assay of K63 polyubiquitinated tau with 26S proteasome", "assay_type": "biochemical", "settings": "Ub-H 1 or 10 μM, 26S proteasome 40 or 80 nM, 2 h 37° C.", "procedure": "In Vitro Ubiquitination and Deubiquitination Assay—His-tagged tau construct was expressed in HEK 293 cells by calcium phosphate method. The cells were collected, washed with PBS and lysed with SDS lysis buffer. The lysate was immunoprecipitated with tau antibody and bound to secondary antibody coupled with agarose beads. Fifty microliters of the reaction buffer (50 mM Tris pH 7.5, 2.5 mM MgCl2, 2 mM DTT, 2 mM ATP) containing 100 ng El, 200 ng UbcH7 (E2), 100 μg TRAF6 (E3) and 5 μg of GST-WT Ub, or its mutants K29R, K48R, and K63R Ub was added to the immunoprecipitated tau. The beads were incubated at 37° C. for 2 h by continuous shaking, then washed three times with reaction buffer. The proteins were released by boiling for 2 min in SDS-PAGE sample buffer, electrophoresed on 7.5% SDS-PAGE and western blotted with antibody to ubiquitin and tau. For the in vitro deubiquitination assay, the ubiquitinated tau was treated with 26S proteasome (40 or 80 nM) in 30 μl of buffer containing 50 mM Tris-HCl, pH 7.5, 2 mM MgCl2, 2 mM ATP for 2 h at 37° C. The deubiquitination of tau by the 26S proteasome was blocked by the addition of ubiquitin aldehyde (Ub-H), an inhibitor of ubiquitin isopeptidases (1 or 10 μM). The samples were boiled in sample buffer, resolved by 7.5% SDS-PAGE and western blotted with anti-ubiquitin or anti-tau. […]"}
{"substance": "ubiquitin aldehyde [Ub-H]", "values": [{"measurement": "polyubiquitin degradation (deubiquitination of tau) by 26S proteasome", "result": "inhibited"}]}
